Measured values reported in ChEMBL document CHEMBL4616670, “Phosphine Oxides from a Medicinal Chemist's Perspective: Physicochemical and in Vitro Parameters Relevant for Drug Discovery” (J Med Chem, 2020).
≈ marks a conversion by molar mass, not a printed value.

Columns and labels:
[1] = Chemical stability of the compound in MeOH/HCl solution at pH <1 assessed as compound decomposition measured after 1 day by UV-RP-HPLC analysis; assay type: physicochemical; conditions: read-out: Drug degradation
[2] = 168 h
Description: Chemical stability of the compound in MeOH/NH3 solution at pH >10 assessed as compound decomposition measured after 7 days by UV-RP-HPLC analysis

physchem [3] = conditions: octanol/water, pH 11
Description: Octanol/water partition coefficient, log D of the compound at pH 11

in vitro [4] = conditions: human, liver microsomes
Description: Half life in human liver microsomes at 1 uM incubated prior to NADPH addition by LC-MS/MS analysis

in vitro [5] = conditions: human, liver microsomes; remark: listed apart in the source
Description: Stability in human liver microsomes at 1 uM incubated prior to NADPH addition by LC-MS/MS analysis relative to hepatic blood flow

physchem [6] = conditions: pH 6.8 buffer
physchem [7] = conditions: pH 6.8 buffer; remark: listed apart in the source
in vitro [8] = conditions: human, Caco-2
Description: Permeability across apical to basolateral side in human Caco2 cells measured up to 2 hrs by LC-MS/MS analysis or scintillation counting method

in vitro [9] = conditions: human, Caco-2; remark: listed apart in the source
Description: Efflux ratio of permeability in human Caco2 cells measured up to 2 hrs by LC-MS/MS analysis or scintillation counting method

physchem [10] = conditions: octanol/water, pH 2
Description: Octanol/water partition coefficient, log D of the compound at pH 2

[11] = Basic dissociation constant, pKb of the compound by UV absorption spectra analysis or potentiometric titration technique; assay type: physicochemical
physchem [12] = conditions: MeOH/HCl solution
Description: Chemical stability of the compound in MeOH/HCl solution at pH <1 assessed as compound decomposition measured after 7 days by UV-RP-HPLC analysis

in vitro [13] = conditions: human, plasma
Description: Protein binding in human plasma

Compound | logD (physchem [3]) | half-life at 1 µM (in vitro [4]) [h] | hepatic extraction ratio at 1 µM (in vitro [5]) | solubility thermodynamic at 24 h (physchem [6]) [µg/mL] | solubility thermodynamic at 24 h (physchem [7]) [µg/mL] | Papp A→B at 2 h (in vitro [8]) [×10⁻⁶ cm/s] | efflux ratio at 2 h (in vitro [9]) | logD (physchem [10]) | pKb [11] | degraded at 168 h (physchem [12]) [%] | fraction unbound (in vitro [13]) | degraded at 24 h [1] [%] | Drug degradation [2] [%]
O=P1(c2ccc(C(F)(F)F)cc2)NCCCN1 | 1.1 | > 2.17 | < 0.23 | > 61 | 12300 (≈ 46600 µM) | 42 | 0.7 | – | – | – | – | > 90 | < 10
CN1CCCN(C)P1(=O)c1ccc(C(F)(F)F)cc1 | 2.7 | > 2.17 | < 0.23 | > 68 | 11100 (≈ 38000 µM) | 81 | 0.5 | 3 | – | – | – | > 90 | < 10
CN1CCN(C)P1(=O)c1ccc(C(F)(F)F)cc1 | 2 | – | – | > 64 | > 30000 | – | – | – | – | – | – | > 90 | < 10
CN1CCP(=O)(c2ccc(C(F)(F)F)cc2)CC1 | 0.9 | > 2.17 | < 0.23 | > 66 | > 30000 | 52 | 0.7 | 0 | 6.3 | < 10 | – | – | < 10
CN1CCCOP1(=O)c1ccc(C(F)(F)F)cc1 (stereo not drawn) | 1.9 | > 2.17 | < 0.23 | 53 (≈ 190 µM) | 7500 (≈ 26900 µM) | 64 | 0.5 | 2.5 | – | – | – | > 90 | < 10

Second part, led by results:

logD (physchem [3]) | half-life at 1 µM (in vitro [4]) [h] | hepatic extraction ratio at 1 µM (in vitro [5]) | solubility thermodynamic at 24 h (physchem [6]) [µg/mL] | solubility thermodynamic at 24 h (physchem [7]) [µg/mL] | Papp A→B at 2 h (in vitro [8]) [×10⁻⁶ cm/s] | efflux ratio at 2 h (in vitro [9]) | logD (physchem [10]) | pKb [11] | degraded at 168 h (physchem [12]) [%] | fraction unbound (in vitro [13]) | Compound | degraded at 24 h [1] [%] | Drug degradation [2] [%]
0.5 | > 2.17 | < 0.23 | > 61 | 28000 (≈ 106000 µM) | 13 | 1.1 | 0 | 6.9 | < 10 | – | O=P1(c2ccc(C(F)(F)F)cc2)CCNCC1 | – | < 10
-1 | > 2.17 | < 0.23 | > 115 | 700 (≈ 1520 µM) | < 0.3 | – | 0.4 | – | – | 0.021 | Cc1ccc(NC(=O)c2ccc(P(=O)(O)O)cc2)cc1Nc1nccc(-c2cccnc2)n1 | – | –
1.5 | > 2.17 | < 0.23 | 77 (≈ 168 µM) | 20 (≈ 43.7 µM) | 0.1 | 16 | 0.4 | – | – | 0.163 | Cc1ccc(NC(=O)c2ccc(P(C)(C)=O)cc2)cc1Nc1nccc(-c2cccnc2)n1 | – | –
-0.6 | > 2.17 | < 0.23 | > 122 | 1100 (≈ 2250 µM) | < 0.1 | – | 1 | – | – | 0.046 | CCOP(=O)(O)c1ccc(C(=O)Nc2ccc(C)c(Nc3nccc(-c4cccnc4)n3)c2)cc1 | – | –
2.8 | 0.283 | 0.7 | 1 (≈ 1.93 µM) | < 1 | 18 | 1.6 | 1.5 | – | – | 0.019 | CCOP(=O)(OCC)c1ccc(C(=O)Nc2ccc(C)c(Nc3nccc(-c4cccnc4)n3)c2)cc1 | – | –
-0.6 | > 2.17 | < 0.23 | > 115 | > 10000 | < 0.1 | – | 0.6 | – | – | 0.119 | Cc1ccc(NC(=O)c2ccc(P(C)(=O)O)cc2)cc1Nc1nccc(-c2cccnc2)n1 | – | –
